Test results as given in PubChem BioAssay (NCI).
Where “and” joins values, the source holds several entries; their conditions need not be identical. Equal values may be shown once.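 Results reflect a 48-hour exposure of cells in 96-well plates to compound at five concentrations. GI50 marks 50% less growth. At the TGI there is no net growth.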

Key:
Experiment in all cases: NCI-60 cell line screen, 48 h
MCF7 breast = system: MCF7 breast
CCRF-CEM leukemia = system: CCRF-CEM leukemia
OVCAR-4 ovarian = system: OVCAR-4 ovarian
ACHN renal = system: ACHN renal
COLO 205 colon = system: COLO 205 colon
A549 NSCLC = system: A549 NSCLC
HT29 colon = system: HT29 colon
NCI-H522 lung = system: NCI-H522 lung
NCI-H226 lung = system: NCI-H226 lung
K-562 leukemia = system: K-562 leukemia

Row | Compound | GI50 (MCF7 breast) | TGI (MCF7 breast) | GI50 (CCRF-CEM leukemia) | TGI (CCRF-CEM leukemia) | GI50 (OVCAR-4 ovarian) | TGI (OVCAR-4 ovarian) | GI50 (ACHN renal) | TGI (ACHN renal) | GI50 (COLO 205 colon) | TGI (COLO 205 colon) | GI50 (A549 NSCLC) | TGI (A549 NSCLC) | GI50 (HT29 colon) | TGI (HT29 colon) | GI50 (NCI-H522 lung) | TGI (NCI-H522 lung) | GI50 (NCI-H226 lung) | TGI (NCI-H226 lung) | GI50 (K-562 leukemia) | TGI (K-562 leukemia)
1 | O=C(NC[C@H](O)CO)c1ccncc1Nc1ccc(I)cc1F | > 10 µM and 15.5 µM | > 100 µM | > 100 µM | > 100 µM | > 7.46 µM and 10.6 µM | > 100 µM | > 2.47 µM and 6.98 µM | > 100 µM | 0.00323 µM and < 0.01 µM | > 100 µM | 0.694 µM and 1.79 µM | > 75.8 µM | 0.00409 µM and < 0.011 µM | > 38.7 µM | 4.95 µM and 33.2 µM | > 100 µM | > 6.36 µM and 1.4 µM | > 100 µM | 1.32 µM and 4.26 µM | > 100 µM
2 | O=[N+]([O-])c1cccc([As]=[As]c2cccc([N+](=O)[O-])c2)c1 (stereo unspecified) | 0.0327 µM | 0.137 µM | 0.0273 µM | 0.112 µM | 0.0921 µM | 0.308 µM | 0.111 µM | 0.242 µM | 0.0663 µM | 0.18 µM | 0.178 µM | 0.351 µM | 0.159 µM | 0.329 µM | 0.0154 µM | 0.0304 µM | 0.143 µM | 0.287 µM | 0.0327 µM | 0.106 µM
3 | C=C(CO[Si](C)(C)C(C)(C)C)C(C)=O | – | 76.7 µM | – | 9.01 µM | – | 44.4 µM | – | > 71.4 µM | – | > 71 µM | – | > 100 µM | – | 40.7 µM | – | 17.3 µM | – | > 100 µM | – | > 52.4 µM
4 | O=C(Nc1ccc(Cl)cc1)Nc1ccc(Nc2nncc3ccccc23)cc1 | 1.43 µM | 8.33 µM | 2.57 µM | 17 µM | 1.97 µM | 8.17 µM | 1.12 µM | 7.12 µM | 2.77 µM | 9.58 µM | 3.03 µM | 19.3 µM | 2.65 µM | 14.1 µM | 1.32 µM | 8.81 µM | 2.46 µM | 12.5 µM | 1.68 µM | 26.4 µM
5 | CC#CC(=O)SCCNC(=O)CC | – | > 10 µM | – | > 8.72 µM | – | > 10 µM | – | > 10 µM | – | > 10 µM | – | > 10 µM | – | > 10 µM | – | 3.14 µM | – | > 10 µM | – | > 10 µM
6 | COc1ccc(/C=C\c2cc(OC)c(OC)c(OC)c2)cc1OC | – | > 100 µM | 0.0791 µM | – | 11.6 µM | 40.4 µM and > 100 µM | 0.763 µM | 40.4 µM and 85 µM | 0.11 µM | 0.171 µM and 0.662 µM | 0.211 µM | 40.4 µM and > 100 µM | 0.043 µM | 31.4 µM | 0.154 µM | – | 0.297 µM | – | 0.0329 µM | 40.4 µM and 15.7 µM
7 | C/C=C(/C)C(=O)O[C@H](C[C@@H](C)[C@H]1CC(c2ccoc2)OC1=O)[C@@]1(C)C(=O)CCC2O[C@]21C (stereo partly specified) | – | > 100 µM | – | > 100 µM | – | > 100 µM | – | > 100 µM | – | > 100 µM | – | > 100 µM | – | > 100 µM | – | > 100 µM | – | > 100 µM | – | > 100 µM
8 | COc1c(Cl)cc(NC(=S)C#N)cc1Cl | – | 92.9 µM | – | > 100 µM | – | 97.9 µM | – | > 80.1 µM | – | 32.2 µM | – | > 100 µM | – | > 65.8 µM | – | 52.8 µM | – | 57.6 µM | – | > 100 µM
